Data taken from article PMC9151520 (Archives of Toxicology, 2022).
Several values for one entry are separate records, joined by “and”; a condition that tells them apart may be missing. Equal entries are not always repeated. Where two headings read alike, the source gives them in different places.

What was measured:
[1] = test system: p53 signaling (p53RE-bla HCT-116 cells)
[2] = test system: p53 signaling (p53RE-bla HCT-116 cells); assay: cells; details: Homo sapiens
[3] = test system: p53 signaling (p53RE-bla HCT-116 cells); remark: listed apart in the source
p53RE-bla HCT-116 cells [4] = assay: cells; details: Homo sapiens
p53RE-bla HCT-116 cells [5] = test system: p53RE-bla HCT-116 cells
[6] = test system: p53 signaling (p53RE-bla HCT-116 cells); assay: cells; assay type: cell-based; details: for EC50 / Emax: Homo sapiens
[7] = rat
[8] = test system: p53 signaling (p53RE-bla HCT-116 cells); assay: cells; assay type: cell-based; details: Homo sapiens, HCT-116
[9] = test system: p53 signaling (p53RE-bla HCT-116 cells); assay: cells; assay type: cell-based; details: Homo sapiens, HCT-116, 0.5 h
[10] = HCT-116, read-out: p53 activation EC50, primary screening
[11] = HCT-116, read-out: p53 activation efficacy, primary screening
[12] = HCT-116, read-out: Viability EC50, cherry pick confirmation
[13] = HCT-116, read-out: Viability EC50, primary screening
[14] = HCT-116, read-out: p53 activation efficacy

CC1CCC(C(C)C)C(OC(=O)c2ccccc2N)C1 (stereo not drawn) [Menthyl anthranilate]
p53 activation EC50, cherry pick confirmation [1]: inactive | p53 activation EC50, primary screening [1]: inactive | p53 activation efficacy, cherry pick confirmation [1]: inactive | p53 activation efficacy, primary screening [1]: inactive | EC50 [2, 10]: 34.8 µM | Emax [2, 11]: 70.8% | p53 activation EC50, cherry pick confirmation [3]: inactive | p53 activation efficacy, cherry pick confirmation [3]: inactive | EC50 (p53RE-bla HCT-116 cells [4]; [12]): 33.8 µM | EC50 (p53RE-bla HCT-116 cells [4]; [13]): 36 µM | Viability EC50, cherry pick confirmation (p53RE-bla HCT-116 cells [5]): inactive | Viability EC50, primary screening (p53RE-bla HCT-116 cells [5]): inactive | EC50 ([6]; HCT-116, read-out: p53 activation EC50, cherry pick confirmation): 0.837 µM | EC50 [6, 10]: 48.8 µM | Emax ([6]; HCT-116, read-out: p53 activation efficacy, cherry pick confirmation): 40.4% | Emax [6, 11]: 62.5%

CCOP(=S)(OCC)Oc1nc(Cl)n(C(C)C)n1 [Isazofos]
p53 activation EC50 [1]: inactive | EC50 ([1]; read-out: p53 activation EC50): 1.62 µM | Depletion after 16 h of incubation with cells [7]: 97.88 ± 0.31% | EC50 [3]: 8.27 µM | p53 activation efficacy [3]: 50.5712 and 50.6263 | Viability EC50 (p53RE-bla HCT-116 cells [5]): inactive | Viability efficacy (p53RE-bla HCT-116 cells [5]): inactive | p53 activation EC50 [6]: inactive | p53 activation efficacy [6]: inactive

Nc1nc(N)c2nc(CNc3ccc(C(=O)N[C@@H](CCC(=O)O)C(=O)O)cc3)cnc2n1 [Aminopterin]
p53 activation EC50 [1]: inactive | p53 activation efficacy [1]: inactive | Emax [2, 14]: 48.5% | p53 activation efficacy [3]: 37.0427 | EC50 (p53RE-bla HCT-116 cells [4]; HCT-116, read-out: Viability EC50): 0.191 µM | Viability EC50 (p53RE-bla HCT-116 cells [5]): inactive | p53 activation efficacy [6]: 45.6293 | Emax [6, 14]: 39.2%

Cc1cccc2c1cc1ccc3cccc4ccc2c1c34 [7-Methylbenzo(a)pyrene]
EC50 [8]: 27.5 µM | Depletion after 16 h of incubation with cells [7]: 52.01 ± 27.41% | EC50 ([2]; HCT-116): 34.3 µM | Viability EC50, HLM (p53RE-bla HCT-116 cells [5]): inactive | Viability EC50, No MS (p53RE-bla HCT-116 cells [5]): inactive | Viability EC50, RLM (p53RE-bla HCT-116 cells [5]): inactive | Viability Efficacy, HLM (p53RE-bla HCT-116 cells [5]): inactive | Viability Efficacy, No MS (p53RE-bla HCT-116 cells [5]): inactive | Viability Efficacy, RLM (p53RE-bla HCT-116 cells [5]): inactive | EC50 [9]: 32.9 µM | p53 activation Efficacy, No MS [6]: 64.7403% | Emax ([6]; HCT-116, read-out: p53 activation Efficacy, No MS): 59.2%

CCOP(=S)(OCC)Oc1cc(C)nc(N(CC)CC)n1 [Pirimiphos-ethyl]
p53 activation EC50, HLM [1]: inactive | EC50 ([1]; read-out: p53 activation EC50, HLM): 3.88 µM | Depletion after 16 h of incubation with cells [7]: 95.16 ± 0.46% | EC50 [3]: 2.07 µM | EC50 ([3]; read-out: p53 activation EC50, RLM): 1.91 µM and 3.44 µM | Viability EC50, HLM (p53RE-bla HCT-116 cells [5]): inactive | Viability EC50, No MS (p53RE-bla HCT-116 cells [5]): inactive | Viability EC50, RLM (p53RE-bla HCT-116 cells [5]): inactive | Viability Efficacy, HLM (p53RE-bla HCT-116 cells [5]): inactive | Viability Efficacy, No MS (p53RE-bla HCT-116 cells [5]): inactive | Viability Efficacy, RLM (p53RE-bla HCT-116 cells [5]): inactive | p53 activation EC50, No MS [6]: inactive | p53 activation Efficacy, No MS [6]: inactive

COC(=O)C1=C(C)NC(COC(N)=O)=C(C(=O)OC(C)C)C1c1cccc(Cl)c1Cl (stereo not drawn) [Lemildipine]
p53 activation EC50, cherry pick confirmation [1]: inactive | p53 activation EC50, primary screening [1]: inactive | p53 activation efficacy, cherry pick confirmation [1]: inactive | p53 activation efficacy, primary screening [1]: inactive | EC50 [2, 10]: 20.7 µM | Emax [2, 11]: 59.7% | p53 activation EC50, cherry pick confirmation [3]: inactive | p53 activation efficacy, cherry pick confirmation [3]: inactive | EC50 (p53RE-bla HCT-116 cells [4]; [12]): 19.9 µM | Viability EC50, cherry pick confirmation (p53RE-bla HCT-116 cells [5]): inactive | Viability EC50, primary screening (p53RE-bla HCT-116 cells [5]): inactive | Viability efficacy, primary screening (p53RE-bla HCT-116 cells [5]): inactive | p53 activation EC50, cherry pick confirmation [6]: inactive | p53 activation EC50, primary screening [6]: inactive | p53 activation efficacy, cherry pick confirmation [6]: inactive | p53 activation efficacy, primary screening [6]: inactive

COc1cc(/C=C/C(=O)CC(=O)/C=C/c2ccc(O)c(OC)c2)ccc1O [Curcumin]
p53 activation EC50, cherry pick confirmation [1]: inactive | p53 activation EC50, primary screening [1]: inactive | p53 activation efficacy, cherry pick confirmation [1]: inactive | p53 activation efficacy, primary screening [1]: inactive | p53 activation EC50, cherry pick confirmation [3]: inactive | p53 activation EC50, primary screening [3]: inactive | p53 activation efficacy, cherry pick confirmation [3]: inactive | p53 activation efficacy, primary screening [3]: inactive | EC50 (p53RE-bla HCT-116 cells [4]; [12]): 16.3 µM | EC50 (p53RE-bla HCT-116 cells [4]; [13]): 31.7 µM | Viability EC50, cherry pick confirmation (p53RE-bla HCT-116 cells [5]): inactive | EC50 (p53RE-bla HCT-116 cells [5]; read-out: Viability EC50, primary screening): 38 µM and 46.9 µM | p53 activation EC50, cherry pick confirmation [6]: inactive | p53 activation efficacy, cherry pick confirmation [6]: inactive | EC50 [6, 10]: 15.4 µM | Emax [6, 11]: 65.1%
